pEC50, pIC50: −log10 of the molar value. The source made the active and inactive calls.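 The calls were made as follows: active = compounds giving half or more protection of infected cells from virus-caused growth loss, again on retest; inactive = the rest.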
System: CEM cells HIV-1 protection, formazan growth assay
Assay: NCI AIDS Antiviral Assay
Settings: for pIC50: measured here: growth of uninfected CEM cells
Summary of the method: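 Five concentrations of each compound were applied to infected and uninfected human CEM cells. Protection from HIV-1 was judged from growth measured with a soluble formazan assay.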

## COC(=O)[C@H]1[C@H]2C[C@@H]3c4[nH]c5cccc(OC)c5c4CCN3C[C@H]2CC[C@H]1O
  pEC50: < 3.70
  pIC50: < 3.70

## N#Cc1c(-c2ccc(F)cc2)c(-c2ccc(F)cc2)nn(CCO)c1=O
  pEC50: < 3.85
  pIC50: 5.83

## C=C1C2CC[C@@]3(CC[C@@H]4[C@@]5(C)CCC[C@@]4(C=[N+](CCOC(C)=O)C5)[C@@H]3C2)[C@@H]1OC(C)=O
  outcome: inactive

## N=C1N(c2ccccc2)C(=O)CC(=O)N1c1ccccc1
  pEC50: < 3.70
  pIC50: 4.27

## Cc1cc(C)c(-n2c(-c3ccccc3)cs/c2=N\N=C2C=C(C(C)(C)C)C(=O)C(C(C)(C)C)=C2)c(C)c1
  pEC50: < 4.85
  pIC50: < 4.85

## Cc1noc(NS(=O)(=O)c2ccc(N=c3c4ccccc4n(C)c4ccccc34)cc2)c1C
  outcome: inactive

## O=C1NP23(OCCO2)Oc2ccccc2C3(C(F)(F)F)O1 (stereo unspecified)
  pEC50: < 3.11
  pIC50: 3.41

## O=C1NCC2=C1CCC1c3ccccc3CCN21 (stereo unspecified)
  pEC50: < 3.70
  pIC50: < 3.70

## COC(=O)[C@@H]1C=C[C@H](OC2OC(COC(C)=O)C(OC(C)=O)C(OC(C)=O)C2OC(C)=O)n2c(=O)n(-c3ccccc3)c(=O)n21 (stereo partly specified)
  pEC50: < 3.70
  pIC50: 5.97

## O=C1CCC2(c3ccc(F)cc3)Nc3ncncc3N12 (stereo unspecified)
  pEC50: < 3.46
  pIC50: < 3.46

## O=C(O)Cc1sc(=O)[nH]c1O
  pEC50: < 3.70
  pIC50: < 3.70

## COc1ccccc1NC(=O)CC(=O)N/N=C/c1ccc(N(CCC#N)S(=O)(=O)c2ccccc2)cc1
  pEC50: < 3.74
  pIC50: < 3.74

## Oc1ccc(C2(c3ccc(O)cc3)CCCC2)cc1
  pEC50: < 3.70
  pIC50: 4.51

## CCC[CH2][Ge]([CH2]CCC)([CH2]CCC)[O]C(=O)CCl
  pEC50: < 4.49
  pIC50: < 4.49

## Cc1cc2c(C(C)C)c(O)c(O)c(C=NCc3ccoc3)c2c(O)c1-c1c(C)cc2c(C(C)C)c(O)c(O)c(C=NCc3ccco3)c2c1O
  pEC50: < 3.70
  pIC50: 5.00

## CCn1cc(C(=O)O)c(=O)c2cc3c(cc21)OCO3
  pEC50: < 4.42
  pIC50: < 4.42

## CN(C)CCN(C(=Nc1ccccc1)N1CCCC1)c1ccccc1
  pEC50: < 3.70
  pIC50: 5.08

## COc1ccc(-c2cc(=O)c3c(OC)c(OC)c(OC)cc3o2)cc1
  pEC50: < 3.89
  pIC50: 4.38

## S=c1nc(-c2ccnc(-c3nc(=S)[nH][nH]3)c2)[nH][nH]1
  pEC50: < 4.59
  pIC50: < 4.59

## COc1ccc2c(C)cc(N/N=C/c3sccc3C)nc2c1
  pEC50: < 3.70
  pIC50: 5.08

## COC(=O)/C=C/c1cc(=O)n2c(nc3ccccc32)s1
  pEC50: < 3.70
  pIC50: < 3.70

## CCOC(=O)[C@H]1Nc2ccc(Cl)cc2[C@H]2c3ccccc3O[C@H]21
  pEC50: < 4.52
  pIC50: < 4.52

## CSC(=Nc1ccc([N+](=O)[O-])cc1C#N)NC(=O)c1ccccc1
  outcome: inactive

## Cc1ccc2nc(NC(=S)SSC(=S)Nc3nc4ccc(C)cc4s3)sc2c1
  pEC50: < 3.70
  pIC50: 6.27

## CN1CC(C)(C)NC(=O)[C@@](C)(OCc2ccccc2)CN(C)CC(C)(C)NC(=O)[C@](C)(OCc2ccccc2)C1
  pEC50: < 3.70
  pIC50: 3.92

## COc1cc(OCc2nc3cc(C(F)(F)F)ccc3nc2-c2ccccc2)cc(OC)c1OC
  pEC50: < 3.70
  pIC50: 4.05

## C=C=C(C(=O)OC)S(=O)c1ccc([N+](=O)[O-])cc1[N+](=O)[O-] (stereo unspecified)
  outcome: inactive

## C(/C=C/c1ccccc1)=Nc1ccc(CCc2ccc(N=C/C=C/c3ccccc3)cc2)cc1
  pEC50: < 5.91
  pIC50: < 5.91

## Cc1ccc(NCC(=O)N2CC(=O)Nc3ccccc32)c(C)c1
  pEC50: < 4.77
  pIC50: < 4.77

## O=[N+]([O-])c1ccc(-c2csc(=[N+]3CCCCC3)s2)cc1
  outcome: inactive

## O=C(Nc1ccc(/C=C/c2ccc(NC(=O)c3cc(S(=O)(=O)O)c4cccnc4c3O)cc2S(=O)(=O)O)c(S(=O)(=O)O)c1)Nc1ccc(/C=C/c2ccc(NC(=O)c3cc(S(=O)(=O)O)c4cccnc4c3O)cc2S(=O)(=O)O)c(S(=O)(=O)O)c1
  pEC50: 5.26
  pIC50: 4.30

## C=CCNc1ncnc2sc(SC)nc12
  pEC50: < 3.70
  pIC50: 3.97

## COc1ccc2[nH]c3c(C)c4ccnc(NCCCN(C)CCCNc5ccc6nnn7c8ccccc8c(=O)c5c67)c4c(C)c3c2c1
  pEC50: < 7.00
  pIC50: 7.50

## CC(c1ccccc1)N1C(=O)CSC1=S (stereo unspecified)
  outcome: inactive

## CC(=O)CCNc1ccc(-c2cc(-c3ccc(N(C)C)cc3)nc3ccc4ccccc4c23)cc1
  pEC50: < 3.70
  pIC50: 3.99

## CCN(CC)CCCC(C)Nc1cc(-c2ccccc2)nc2ccccc12 (stereo unspecified)
  pEC50: < 4.75
  pIC50: 5.11

## CC(C)(S)C(N)C(=O)O (stereo unspecified)
  pEC50: < 2.78
  pIC50: < 2.78

## C/C(=N\NC(=O)c1cccc2c(=O)c3ccccc3[nH]c12)C1CC[C@H]2[C@@H]3CCC4=C/C(=N\NC(=O)c5cccc6c(=O)c7ccccc7[nH]c56)CC[C@]4(C)[C@H]3CC[C@]12C (stereo partly specified)
  pEC50: < 4.30
  pIC50: < 4.30

## O=C(Nc1ccc(C(F)(F)F)cc1[N+](=O)[O-])C(=O)C(C(=O)c1ccc2ccccc2c1)C1OC(=O)c2ccccc21 (stereo unspecified)
  pEC50: < 4.19
  pIC50: 4.47

## COc1cc2c3c(c1OC)/C(=N/OS(=O)(=O)c1ccc(C)cc1)CC3N(S(=O)(=O)c1ccc(C)cc1)CC2 (stereo unspecified)
  outcome: inactive

## Cc1ccc2c(c1)C(O)(c1ccccc1)C(c1ccccc1)C(c1ccccc1)O2 (stereo unspecified)
  pEC50: < 3.70
  pIC50: 5.16

## Cc1nc2nc3n(c(=O)c2nc1C)CCS3
  outcome: inactive

## COc1ccc(/C=C2/N=C(N/N=C\C(O)C(O)C(O)CO)NC2=O)cc1 (stereo unspecified)
  pEC50: < 3.70
  outcome: inactive
  pIC50: 4.10

## Cn1nc2ccc([N+](=O)[O-])cc2[n+]1[O-]
  pEC50: < 3.70
  pIC50: 3.81

## COc1ccc2c(CCNS(=O)(=O)c3ccccc3)c(C(C)=O)[nH]c2c1[N+](=O)[O-]
  outcome: inactive

## FC(F)(F)c1cc(Cl)c2ccc3ccccc3c2n1
  outcome: inactive
  pIC50: 4.90

## Nc1ncnc2c1ncn2[C@@H]1C[C@@H]1CO
  pEC50: < 3.70
  pIC50: < 3.70

## Cc1cn(C2OC(CO)C(CN=[N+]=[N-])C2O)c(=O)[nH]c1=O (stereo unspecified)
  pEC50: < 3.70
  pIC50: < 3.70

## O=S(=O)(N/N=C/c1ccc(Cl)cc1Cl)c1ccccc1
  outcome: inactive

## NC(=O)c1cccc(OCC(O)CO)c1 (stereo unspecified)
  pEC50: < 3.70
  pIC50: < 3.70

## CC(C)(C)[Si](C)(C)OC[C@H]1O[C@@H](n2ccc(=O)[nH]c2=O)[C@H](O[Si](C)(C)C(C)(C)C)[C@]1(O)[C@H](N=[N+]=[N-])C(N)=O
  pEC50: < 3.70
  pIC50: 5.22

## COc1ccc(NC(=S)/C(=C(\[O-])c2ccc([N+](=O)[O-])cc2)[n+]2ccc(C(C)C)cc2)cc1
  pEC50: < 3.70
  pIC50: < 4.00

## N#Cc1c2c(cn3c1nc1ccccc13)CCCC2
  pEC50: < 3.70
  pIC50: 3.97

## Nc1cc(N2CCOCC2)nc(=O)n1-c1ccccc1
  pEC50: < 3.70
  pIC50: < 3.70

## CCOC(=O)/C(C#N)=C/c1ccc(N(C)C)cc1
  pEC50: < 4.11
  pIC50: < 4.11

## CNC(=S)NNC(=O)c1c(C)nc2sccn12
  pEC50: < 3.03
  pIC50: 3.24

## N#C/C(=C1\SC(=O)CN1c1ccc(Cl)cc1)c1nc2ccccc2o1
  pEC50: < 3.70
  pIC50: 4.46

## Cc1cc(O)oc(=O)c1
  pEC50: < 2.70
  pIC50: < 2.70

## Cn1c(COc2ccc(/C=N/NC(=O)CCC(=O)N/N=C/c3ccc(OCc4c[n+]5ccccc5n4C)cc3)cc2)c[n+]2ccccc12
  pEC50: 4.87
  pIC50: 4.72

## CCN(CC)CCNc1nc(N)c(C#N)c(C#N)c1C#N
  pEC50: < 3.70
  pIC50: 3.76

## CNc1ccc(Cl)cc1S(=O)(=O)c1ccc(OC)cc1
  pEC50: < 3.70
  pIC50: 5.67

## Cc1ccc2c3c(nsc13)-c1ccccc1C2=O
  pEC50: < 4.27
  pIC50: < 4.27

## COc1ccc2c(c1)[n+](=O)c(C(=O)C/C(=N\NC(=O)C[N+](C)(C)C)C(=O)Nc1cc(Cl)ccc1Cl)c(C)n2O
  pEC50: < 5.91
  pIC50: < 5.91

## CS(=O)(=O)N1CC(CCl)c2ccc(NO)cc21 (stereo unspecified)
  pEC50: < 3.70
  pIC50: 5.43

## C[C@H]1SC(c2ccc(Cl)cc2Cl)N(NC(=O)c2ccncc2)C1=O (stereo partly specified)
  pEC50: < 3.70
  pIC50: 4.47

## CSc1nc(NC2OCC(O)C(O)C2O)c(N)c(=O)n1C (stereo unspecified)
  outcome: inactive

## CS(=O)(=O)C(CC(S(C)(=O)=O)S(C)(=O)=O)S(C)(=O)=O
  pEC50: < 4.69
  pIC50: < 4.69

## CCOC(=O)c1ccc(N2C(=O)/C(=C\OC)c3ccccc3C2=O)cc1
  outcome: inactive

## N#Cc1ccccc1NC(=O)/C(=N\N)C(C(=O)c1ccncc1)C1OC(=O)c2ccccc21 (stereo unspecified)
  outcome: inactive

## C=C1CN(S(=O)(=O)c2ccc(C)cc2)CCCN(CC2CC=CCC2)CCCN(S(=O)(=O)c2ccc(C)cc2)C1 (stereo unspecified)
  pEC50: < 3.70
  pIC50: 5.89

## C=C1C(=O)O[C@@H]2C[C@@H](C)[C@@H]3C=CC(=O)[C@@]3(C)[C@@H](OC(=O)CCCC(=O)O[C@H]3[C@@H]4C(=C)C(=O)O[C@@H]4C[C@@H](C)[C@@H]4C=CC(=O)[C@]43C)[C@H]12
  pEC50: < 5.24
  pIC50: 6.39

## O=Nc1ccc(O)c(Cl)c1
  pEC50: < 3.70
  pIC50: 4.88

## C=CCC(O)C1=CC(=O)c2c(O)ccc(O)c2C1=O (stereo unspecified)
  outcome: inactive

## CN1c2ccccc2C(=O)NC12CCN(CC1COc3ccccc3O1)CC2 (stereo unspecified)
  pEC50: < 3.70
  pIC50: 4.05

## NS(=O)(=O)c1nnc(NS(=O)(=O)c2ccc(Cl)cc2)s1
  pEC50: < 3.70
  pIC50: < 3.70

## C[C@H](N)C(O)C/C=C\CC(O)/C=C/C=C\C/C=C\C/C=C\C/C=C\CCCCCCC(O)[C@H](C)N (stereo partly specified)
  outcome: inactive

## COC1(OC)N=C(N)C2(C#N)/C(=N/N(C)C)CC(C)C12C#N (stereo unspecified)
  pEC50: < 3.70
  pIC50: < 3.70

## Nc1nc(N)c2c(n1)C(=O)N(Cc1ccccc1)C2
  outcome: inactive

## C=COCCC(C(=O)OCC)C(=O)OCC
  pEC50: < 3.70
  pIC50: < 3.70

## O=C1[O][Bi]23[O]C(=O)C([O]2)C1[O]3
  pEC50: < 4.44
  pIC50: < 4.44

## CC(=O)NCCc1c[nH]c2ccc(Cl)cc12
  pEC50: < 3.70
  pIC50: 3.71

## NC(=O)c1ccc2cc(O)c(O)cc2c1
  pEC50: < 3.61
  pIC50: 4.46

## O=C(Nc1nc2ncn(CCOC(=O)c3ccccc3)c2c(=O)[nH]1)c1ccccc1
  pEC50: < 4.07
  pIC50: 4.21

— PubChem BioAssay AID179 (DTP/NCI, 2004)
